{"source": "patent US20170143712A1", "about": "“Methods of Treating Cancers, Immune and Autoimmune Diseases, and Inflammatory Diseases Based on BTK Occupancy and BTK Resynthesis Rate” (Acerta Pharma B.V., priority 2014, published 2017)", "key": {"ID8 ovarian cancer": {"test_system": "ID8 ovarian cancer", "assay": "ID8 syngeneic orthotropic ovarian cancer murine model", "assay_type": "in vivo, mouse", "conditions": "15 mg/kg/BID orally vs vehicle", "from_the_text": "The ID8 syngeneic orthotropic ovarian cancer murine model was used to investigate the therapeutic efficacy of the BTK inhibitor of Formula (II) through treatment of the solid tumor microenvironment. Human ovarian cancer models, including the ID8 syngeneic orthotropic ovarian cancer model and other animal models, are described in Fong and Kakar, J. Ovarian Res. 2009, 2, 12; Greenaway, et al., Gynecol. Oncol. 2008, 108, 385-94; Urzua, et al., Tumour Biol. 2005, 26, 236-44; Janat-Amsbury, et al., Anticancer Res. 2006, 26, 3223-28; Janat-Amsbury, et al., Anticancer Res. 2006, 26, 2785-89. Animals were treated with vehicle or Formula (II), 15 mg/kg/BID given orally. The results of the study are shown in FIG. 35A, FIG. 35B, FIG. 36, FIG. 37, FIG. 38A, FIG. 38B, FIG. 39A, and FIG. 39B."}, "MDA-MB-231 tumor cells": {"test_system": "MDA-MB-231 tumor cells", "assay": "Osteolytic bone lesions after intratibial MDA-MB-231 tumor inoculation in nude rats", "assay_type": "in vivo, rat", "design": "mean visual lysis score: scale not given here; mean left tibial density: unit not given here", "protocol": "FIG. 40A, FIG. 40B, FIG. 40C, FIG. 40D, FIG. 40E, FIG. 40F, and FIG. 40G illustrate the bone density in hind limbs of nude rats (n=6 per group) implanted with intratibial MDA-MB231 tumor […] and treated for up to 41 days with vehicle control, zoledronate (active control) or varying doses of Formula (II). Oral gavage administration of Formula (II) was scheduled as 3 days of initial QD dosing, followed by 30 days of BID dosing at the following dose levels: 3/3, 30/30, and 180/90 mg/kg/day. An untreated group of rats, without tibial implants (n=3) represents bone density of concurrently obtained normal rat tibial images. Statistical significance was determined by two-way ANOVA-Dunnett: ns=not significant, *=P<0.05, **=P<0.01, ***=P<0.001, versus Group 1.\nRats were inoculated with MDA-MB-231 tumor cells on Day 1, baseline radiographs were taken on Day 2, and treatment with Formula (II) began on Day 8. Radiographs were taken on Days 10, 17, 24, 31, 38, and 41. Anti-osteolytic activities were determined from differences in bone density and visual lysis scores between the drug-treated and vehicle-treated groups on each observation day, and also from changes in bone density and visual lysis scores in tumor-inoculated left tibias at baseline (Day 2) compared to Days 10, 17, 24,31, 38, and 41.\nRadiographs were blinded for both analyses. […] Visual osteolysis was not detected in any rat in the nave group. The 4% increase in mean bone density from baseline to study end presumably reflected normal growth in these rats."}, "B cell receptor (BCR)": {"test_system": "B cell receptor (BCR)", "assay": "Ex vivo anti-IgM induced CD86 and CD69 expression on splenocyte B cells after oral dosing of mice", "assay_type": "in vivo", "conditions": "Mus musculus, single oral 25 mg/kg, 3-24 hours, read-out: CD86 % inhibition over the entire time course"}, "[1]": {"test_system": "anti-KLH IgM and IgG antibody response", "assay": "T cell dependent antibody response (TDAR) to KLH in rats", "assay_type": "in vivo, rat", "conditions": "1, 2.5 and 5 mg/kg/day oral gavage, KLH on Day 50", "protocol": "Rats were treated with oral gavage administration of vehicle or Formula (II) at doses of 1, 2.5 and 5 mg/kg/day for 91 days. Sixteen rats per gender were evaluated for development of T cell dependent antibody response (TDAR), with primary immunization on Day 50 with keyhole limpet hemocyanin (KLH) by subcutaneous injection. Dosing continued and on Days 57, 64, and 71, blood samples were collected via the sublingual vein into tubes without anticoagulant and allowed to clot at room temperature for at least 30 minutes, then the serum was divided into 4 approximately equal aliquots and stored frozen at approximately −60 to −90° C. Anti-KLH IgM and IgG antibody levels were determined using an enzyme-linked immunosorbent assay (ELISA). FIG. 41A, FIG. 41B, FIG. 41C, FIG. 41D, FIG. 41E, FIG. 41F, FIG. 42A, FIG. 42B, FIG. 42C, FIG. 42D, FIG. 42E, and FIG. 42F illustrate the trends in anti-KLH antibody responses among male and female rats."}, "[2]": {"conditions": "180 QD/90 BID mg/kg (Group 5), Day 31"}, "[3]": {"conditions": "180 QD/90 BID mg/kg (Group 5), Day 41"}}}
{"smiles": "CC#CC(=O)N1CCC[C@H]1c1nc(-c2ccc(C(=O)Nc3ccccn3)cc2)c2c(N)nccn12", "note": "[Formula (II), (S)-4-(8-amino-3-(1-(but-2-ynoyl)pyrrolidin-2-yl)imidazo[1,5-a]pyrazin-1-yl)-N-(pyridin-2-yl)benzamide]", "values": [{"measurement": "CD8+ T cells", "setting": "ID8 ovarian cancer", "result": "increase"}, {"measurement": "ID8 ovarian cancer growth", "setting": "ID8 ovarian cancer", "result": "impairs ID8 ovarian cancer growth"}, {"measurement": "immunosuppressive B cells in tumor-bearing mice", "setting": "ID8 ovarian cancer", "result": "significant reduction"}, {"measurement": "immunosuppressive tumor associated Tregs", "setting": "ID8 ovarian cancer", "result": "significant reduction"}, {"measurement": "immunosuppressive tumor-associated lymphocytes", "setting": "ID8 ovarian cancer", "result": "significant reduction"}, {"measurement": "left tibial bone density compared to vehicle controls", "setting": "MDA-MB-231 tumor cells; 3 or 30 mg/kg, any observation day excluding Day 24 for 30 mg/kg", "result": "no significant differences"}, {"measurement": "left intratibial densities compared to control Group 1", "setting": "MDA-MB-231 tumor cells; 180 QD/90 BID mg/kg (Group 5)", "result": "significantly greater compared to control Group 1 on Day 31, but not Day 41"}, {"measurement": "mean left tibial density", "setting": "MDA-MB-231 tumor cells; 180 QD/90 BID mg/kg (Group 5), Day 2 baseline", "result": "201.4±0.6"}, {"measurement": "decrease in mean left tibial density", "setting": "MDA-MB-231 tumor cells; 180 QD/90 BID mg/kg (Group 5), Day 2 to Days 31 and 41", "result": "1-2%"}, {"measurement": "mean left tibial density", "setting": "MDA-MB-231 tumor cells; [2]", "result": "199.1±0.6"}, {"measurement": "mean visual lysis score", "setting": "MDA-MB-231 tumor cells; [2]", "result": 1.2}, {"measurement": "mean left tibial density", "setting": "MDA-MB-231 tumor cells; [3]", "result": "197.2±0.6"}, {"measurement": "mean visual lysis score", "setting": "MDA-MB-231 tumor cells; [3]", "result": 1.5}, {"measurement": "rats that never developed visible left tibial lesions", "setting": "MDA-MB-231 tumor cells; 180 QD/90 BID mg/kg (Group 5), n=6", "result": "Two rats"}, {"measurement": "inhibition at 25 mg/kg", "setting": "B cell receptor (BCR)", "result": 67.9, "unit": "%"}, {"measurement": "anti-KLH IgM and IgG production", "setting": "[1]", "result": "significant pharmacological effects on the magnitude of IgM and IgG production"}]}
